Data on 34 molecules can be found in ChEMBL document CHEMBL6092202, “4-Anilinoquinazoline Derivatives as the First Potent NOD1-RIPK2 Signaling Pathway Inhibitors at the Nanomolar Range” (J Med Chem, 2024).

The IC50 is the concentration at which inhibition is half-maximal. For orientation: half-life means the time needed for the level to fall by half in the phase considered. Broadly, the logD is lipophilicity at a set pH, counting ionised and neutral species. Lower therefore signals lower lipophilicity. The solubility is how much of the substance goes into solution per volume. Read a low solubility as a poorly soluble substance.

In series [1] the target is Nucleotide-binding oligomerization domain-containing protein 2 (Homo sapiens, UniProt Q9HC29). The series can be described thus: Inhibition of human NOD2 expressed in HEK-Blue hNOD2 cells coexpressing NF-kappaB-inducible SEAP reporter gene assessed as inhibition of NF-kappaB transcriptional activity by measuring decrease in SEAP activity preincubated for 30 mins followed by C12-iE-DAP addition and measured after 18 hrs by absorbance based spectrophotometric analysis. In kind it is cell-based. (Reporter assays use an easily measured gene product as a stand-in for the process of interest.)

The target in series [2] is T1, Nucleotide-binding oligomerization domain-containing protein 1 (Homo sapiens, UniProt Q9Y239).
T1 sequence (Q9Y239 whole entry): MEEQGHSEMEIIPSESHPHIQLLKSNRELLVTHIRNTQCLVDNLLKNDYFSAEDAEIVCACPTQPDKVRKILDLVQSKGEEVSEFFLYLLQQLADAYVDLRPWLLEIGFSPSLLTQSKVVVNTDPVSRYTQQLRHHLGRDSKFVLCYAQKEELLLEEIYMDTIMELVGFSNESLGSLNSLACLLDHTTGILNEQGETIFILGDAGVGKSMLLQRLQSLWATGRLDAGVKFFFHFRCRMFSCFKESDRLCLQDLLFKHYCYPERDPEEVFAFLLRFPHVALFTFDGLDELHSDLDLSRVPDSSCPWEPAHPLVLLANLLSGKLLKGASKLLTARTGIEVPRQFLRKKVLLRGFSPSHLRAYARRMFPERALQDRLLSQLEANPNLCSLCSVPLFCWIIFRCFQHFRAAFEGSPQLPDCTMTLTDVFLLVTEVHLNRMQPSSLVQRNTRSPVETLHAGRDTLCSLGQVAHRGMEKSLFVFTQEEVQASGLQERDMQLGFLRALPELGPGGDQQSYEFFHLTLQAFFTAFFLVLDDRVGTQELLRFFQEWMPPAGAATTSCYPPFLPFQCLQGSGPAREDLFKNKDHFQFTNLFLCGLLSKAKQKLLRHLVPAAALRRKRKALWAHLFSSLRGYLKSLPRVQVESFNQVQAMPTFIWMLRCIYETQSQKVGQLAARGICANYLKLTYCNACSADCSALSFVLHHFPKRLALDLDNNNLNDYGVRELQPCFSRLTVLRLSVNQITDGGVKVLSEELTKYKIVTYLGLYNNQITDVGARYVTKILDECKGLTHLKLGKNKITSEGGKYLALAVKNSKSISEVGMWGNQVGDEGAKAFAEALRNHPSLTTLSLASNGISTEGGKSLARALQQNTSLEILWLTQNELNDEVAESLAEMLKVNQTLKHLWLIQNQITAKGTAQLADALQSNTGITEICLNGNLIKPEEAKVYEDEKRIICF
Kind of series: Inhibition of human NOD1 expressed in HEK-Blue hNOD1 cells coexpressing NF-kappaB-inducible SEAP reporter gene assessed as inhibition of NF-kappaB transcriptional activity by measuring decrease in SEAP activity preincubated for 30 mins followed by C12-iE-DAP addition and measured after 18 hrs by absorbance based spectrophotometric analysis. In kind it is cell-based.

A short description of series [3]: Cytotoxicity against HEK-Blue hNOD1 cells assessed as reduction in cell viability at 1 uM measured after 72 hrs by celltiter 96 aqueous one solution cell proliferation assay. In kind it is toxicity, cell-based. As to conditions: human, hek-blue hnod1, 72 h.
Series [4] has as its target Epidermal growth factor receptor (Homo sapiens, UniProt P00533). Kind of series: Inhibition of recombinant EGFR (unknown origin) using PGT as substrate preincubated for 10 mins followed by substrate addition and measured after 1 hr in presence of ATP by ADP-Glo luminescence assay.
Series [5] can be described thus: Cytotoxicity against human THP1-Blue NF-kappaB cells assessed as reduction in cell viability at 1 uM measured after 72 hrs by celltiter 96 aqueous one solution cell proliferation assay. In kind it is toxicity, cell-based.
For the next series, the system named is Huh-7. Kind of series: Cytotoxicity against human Huh-7 cells assessed as reduction in cell viability at 1 uM measured after 72 hrs by celltiter 96 aqueous one solution cell proliferation assay. In kind it is toxicity, cell-based. Particulars: huh-7, 72 h.
A short description of series [6]: Inhibition of recombinant VEGFR (unknown origin) using PGT as substrate preincubated for 10 mins followed by substrate addition and measured after 1 hr by ADP-Glo luminescence assay. On the set-up: species or system Homo sapiens. (In general: ADP-Glo first removes unused ATP, then detects ADP through luciferase.)
Series [7] can be described thus: Stability in plasma (unknown origin) assessed as half life. In kind it is ADME, cell-free.
A short description of series [8]: Lipophilicity, logD of compound at pH 7.4. In kind it is physicochemical. As to conditions: buffer.
The nature of series [9]: Metabolic stability in liver microsomes (unknown origin) assessed as intrinsic clearance. In kind it is ADME, Microsome. Particulars: read-out: CLH. For orientation: Liver microsomes are vesicles of endoplasmic reticulum, rich in cytochrome P450 enzymes.
A short description of series [10]: Metabolic stability in liver microsomes (unknown origin) assessed as half life. In kind it is ADME, Microsome.
The nature of series [11]: Solubility of the compound in PBS buffer at pH 7.4. In kind it is physicochemical.
For series [12], the target named is Receptor-interacting serine/threonine-protein kinase 2 (Homo sapiens, UniProt O43353). The series can be described thus: Inhibition of human recombinant RIPK2 (1 to 317 residues) expressed in Sf21 insect cells using MBP as substrate preincubated for 10 mins followed by substrate addition and measured after 1 hr by ADP-Glo luminescence assay.
The next series relates to HEK-Blue hNOD1. Kind of series: Anti-inflammatory activity in HEK-Blue hNOD1 cells assessed as reduction in C12-iE-DAP stimulated IL-8 secretion at 0.01 to 1 uM preincubated for 1 hr followed by C12-iE-DAP addition and measured after 22 hrs by fluorescence based analysis. In kind it is functional, cell-based. As to conditions: Homo sapiens, dose 0.01-1 µM, time 23.0 hrs.

Each structure is given as a SMILES string. Values after ≈ are worked out from the molar mass of the structure shown. Active and inactive are the calls of the source.

Sequence of Epidermal growth factor receptor (P00533 whole entry): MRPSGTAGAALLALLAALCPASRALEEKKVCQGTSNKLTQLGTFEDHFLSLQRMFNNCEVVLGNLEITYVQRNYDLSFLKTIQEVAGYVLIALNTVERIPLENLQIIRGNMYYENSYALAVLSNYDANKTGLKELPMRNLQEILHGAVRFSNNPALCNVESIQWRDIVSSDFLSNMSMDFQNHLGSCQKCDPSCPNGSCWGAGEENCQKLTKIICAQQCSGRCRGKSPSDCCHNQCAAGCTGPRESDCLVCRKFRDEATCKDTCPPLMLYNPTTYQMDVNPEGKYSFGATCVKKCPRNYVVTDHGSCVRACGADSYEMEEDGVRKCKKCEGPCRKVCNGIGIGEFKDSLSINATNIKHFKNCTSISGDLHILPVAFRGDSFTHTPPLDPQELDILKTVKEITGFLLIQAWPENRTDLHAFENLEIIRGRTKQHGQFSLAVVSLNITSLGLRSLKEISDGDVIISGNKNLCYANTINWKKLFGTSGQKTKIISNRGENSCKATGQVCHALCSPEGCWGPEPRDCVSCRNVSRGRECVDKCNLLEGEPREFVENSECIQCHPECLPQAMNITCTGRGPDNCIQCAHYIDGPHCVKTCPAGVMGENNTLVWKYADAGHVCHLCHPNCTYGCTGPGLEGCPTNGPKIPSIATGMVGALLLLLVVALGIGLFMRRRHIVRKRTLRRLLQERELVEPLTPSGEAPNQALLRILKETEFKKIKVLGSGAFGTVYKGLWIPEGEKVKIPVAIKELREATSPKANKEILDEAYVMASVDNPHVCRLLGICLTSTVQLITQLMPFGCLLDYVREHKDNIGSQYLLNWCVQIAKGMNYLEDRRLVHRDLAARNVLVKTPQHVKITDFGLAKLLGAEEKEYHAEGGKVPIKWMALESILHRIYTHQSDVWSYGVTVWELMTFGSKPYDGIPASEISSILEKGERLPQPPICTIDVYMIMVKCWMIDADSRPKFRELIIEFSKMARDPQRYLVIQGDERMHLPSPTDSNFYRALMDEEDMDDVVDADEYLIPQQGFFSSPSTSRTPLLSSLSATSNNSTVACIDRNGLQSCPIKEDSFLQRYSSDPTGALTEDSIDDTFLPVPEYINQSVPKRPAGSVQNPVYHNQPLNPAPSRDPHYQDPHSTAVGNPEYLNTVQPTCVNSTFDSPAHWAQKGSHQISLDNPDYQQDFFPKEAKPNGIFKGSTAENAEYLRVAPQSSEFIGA
Sequence of Nucleotide-binding oligomerization domain-containing protein 2 (Q9HC29 whole entry, the tested form may be a part): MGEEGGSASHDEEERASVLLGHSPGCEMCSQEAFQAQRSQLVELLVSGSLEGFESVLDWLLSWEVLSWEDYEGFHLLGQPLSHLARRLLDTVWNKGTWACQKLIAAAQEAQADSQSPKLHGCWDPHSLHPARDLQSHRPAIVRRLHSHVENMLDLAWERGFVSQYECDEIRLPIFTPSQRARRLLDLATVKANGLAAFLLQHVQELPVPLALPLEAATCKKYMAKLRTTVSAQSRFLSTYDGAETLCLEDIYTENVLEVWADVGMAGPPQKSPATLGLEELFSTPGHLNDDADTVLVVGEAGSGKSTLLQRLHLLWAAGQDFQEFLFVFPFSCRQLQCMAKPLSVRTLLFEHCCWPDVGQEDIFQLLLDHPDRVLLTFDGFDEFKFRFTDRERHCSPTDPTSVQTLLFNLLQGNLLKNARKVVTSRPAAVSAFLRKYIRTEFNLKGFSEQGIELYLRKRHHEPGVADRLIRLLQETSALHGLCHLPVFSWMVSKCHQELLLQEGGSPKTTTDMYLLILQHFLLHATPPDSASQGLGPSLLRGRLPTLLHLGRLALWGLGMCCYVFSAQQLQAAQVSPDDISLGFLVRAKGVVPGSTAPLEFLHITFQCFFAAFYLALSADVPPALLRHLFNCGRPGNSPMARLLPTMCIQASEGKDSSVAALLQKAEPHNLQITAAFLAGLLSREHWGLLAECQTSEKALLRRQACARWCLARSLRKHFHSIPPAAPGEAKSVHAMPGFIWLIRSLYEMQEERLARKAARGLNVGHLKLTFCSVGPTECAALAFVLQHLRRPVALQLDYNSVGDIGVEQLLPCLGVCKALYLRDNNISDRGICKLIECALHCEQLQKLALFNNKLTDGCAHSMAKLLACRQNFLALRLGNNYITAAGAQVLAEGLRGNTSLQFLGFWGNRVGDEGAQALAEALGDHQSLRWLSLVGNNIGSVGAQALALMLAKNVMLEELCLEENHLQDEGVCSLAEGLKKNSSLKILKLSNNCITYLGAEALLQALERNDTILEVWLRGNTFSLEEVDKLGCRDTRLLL
Sequence of Receptor-interacting serine/threonine-protein kinase 2 (O43353 whole entry, the tested form may be a part): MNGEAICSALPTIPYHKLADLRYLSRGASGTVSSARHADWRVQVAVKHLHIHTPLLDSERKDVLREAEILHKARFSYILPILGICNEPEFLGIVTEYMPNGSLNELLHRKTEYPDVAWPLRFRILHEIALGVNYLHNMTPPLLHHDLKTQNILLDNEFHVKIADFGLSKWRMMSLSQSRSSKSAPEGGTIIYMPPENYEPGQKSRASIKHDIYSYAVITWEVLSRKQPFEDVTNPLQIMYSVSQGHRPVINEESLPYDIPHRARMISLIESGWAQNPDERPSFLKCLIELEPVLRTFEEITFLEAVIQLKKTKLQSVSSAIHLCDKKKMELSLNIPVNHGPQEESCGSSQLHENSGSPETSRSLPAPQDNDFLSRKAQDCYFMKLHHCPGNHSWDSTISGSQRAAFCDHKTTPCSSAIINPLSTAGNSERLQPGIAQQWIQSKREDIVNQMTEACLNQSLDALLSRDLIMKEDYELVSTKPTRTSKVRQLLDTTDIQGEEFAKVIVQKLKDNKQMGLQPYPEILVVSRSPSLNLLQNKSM

As to `COc1cc2ncnc(Nc3cccc(N)c3)c2cc1OC`, the IC50 in series [1] and in [2] was above 10 µM throughout.
In the case of `COc1cc2ncnc(Nc3cc(Br)ccc3Br)c2cc1OC`, in series [1], the IC50 is above 10 µM.
As for `COc1cc2ncnc(Nc3ccc4scnc4c3)c2cc1OC.Cl`, the IC50 in series [1] was above 10 µM; in series [4], 0.036 µM. Also, the Activity entry (in [3]; in [5]; in the series with Huh-7) was “Non-toxic” in each case.
As to `COc1cc2ncnc(Nc3ccc(Cl)c(Cl)c3)c2cc1OC`, in series [1], the IC50 is above 10 µM.
Consider `COc1cc2ncnc(Nc3ccc(F)c(O)c3)c2cc1OC`, for which the IC50 in series [1] was above 10 µM; in series [4], 0.00255 µM; in series [6], 0.00302 µM. For the same molecule, the Activity result (in series [3]; in series [5]; with Huh-7) was “Non-toxic” each time.
Consider `COc1cc(Nc2ncnc3c(OC)c(OC)c(OC)cc23)c(Cl)cc1Cl`, for which the IC50 in series [1] was above 10 µM.
In the case of `COc1cc2ncnc(Nc3ccc(Cl)c(N)c3)c2cc1OC`, the half-inhibitory concentration (IC50) is above 10 µM in series [1] and 0.00046 µM in [4]. Moreover, the Activity result (in series [3]; in series [5]; in the series on Huh-7) was “Non-toxic” each time.
For `COc1cc2ncnc(Nc3cc(N)ccn3)c2cc1OC`, the IC50 in [1] is above 10 µM.
For `COc1cc2ncnc(Nc3ccc(Cl)cc3Cl)c2cc1OC`, the IC50 in series [1] and in [2] was above 10 µM each time.
For the molecule `CCN(CC)CCOc1ccc2c(Nc3cc(OC)c(Cl)cc3Cl)ncnc2c1`, the IC50 in series [1] was above 10 µM.
With `COc1cc2ncnc(Nc3cc(O)c(Cl)cc3Cl)c2cc1OC`, the IC50 in [1] and in series [2] was above 10 µM in each case.
As for `COc1ccc(Cl)c(Nc2ncnc3cc(OC)c(OC)cc23)c1`, the half-maximal inhibitory concentration (IC50) in series [1] is above 10 µM; in series [2] it was 0.686 µM.
`COc1cc2ncnc(Nc3cccc(Cl)c3)c2cc1OC`: the IC50 in [1] and in series [2] was above 10 µM throughout.
As for `COc1cc2ncnc(Nc3cccc(O)c3)c2cc1OC`, the IC50 is above 10 µM in series [1] and 0.157 µM in series [2].
On to `COc1cc(Nc2ncnc3cc(OC)c(OC)cc23)c(Cl)cc1Cl`, for which the IC50 is above 10 µM in series [1] and 0.0613 µM in series [4]. The Activity result (in series [3]; in [5]; in the series on Huh-7) was “Non-toxic” throughout.
As to `COCCOc1cc2ncnc(Nc3cc(OC)c(Cl)cc3Cl)c2cc1OCCOC`, in series [1], the IC50 was above 10 µM.
Take `COc1cc2ncnc(Nc3ccc(Cl)c(O)c3)c2cc1OC.Cl`: the IC50 is above 10 µM in series [1], 0.00084 µM in [4], 0.00139 µM in series [6] and 0.033 µM in series [2]. Moreover, the Activity entry (in [3]; in series [5]; in the series with Huh-7) was “Non-toxic” each time.
Regarding `CCN(CC)CCOc1cc2ncnc(Nc3cc(OC)c(Cl)cc3Cl)c2cc1OC`, the IC50 in series [1] is above 10 µM; in series [4], above 1 µM; in series [6], above 1 µM; in [2], 0.042 µM. Moreover, the Activity result (in series [3]; in [5]; in the series with Huh-7) was “Non-toxic” throughout. The values for the half-life in series [7] and in series [10] were above 6 h and above 0.667 h, respectively. In series [8], this molecule yielded a logD of 0.88. For the same molecule, the microsomal CLint in series [9] stood at 29 µL/min/mg. In [11], the solubility turned out to be 31 µM (≈ 14.4 µg/mL).
For the molecule `COc1cc(Nc2ncnc3cc(OC)c(OC)cc23)ccc1Cl`, the IC50 in [1] is above 10 µM.
As for `CCCS(=O)(=O)Nc1cc(-c2cc(-c3ccc(N4CCNCC4)cc3)cnc2N)cc(F)c1OC`, the IC50 in series [1] worked out at 0.219 µM; in series [12], 0.00193 µM.
Regarding `COc1cc2ncnc(-n3nc(N)c4cc(F)ccc43)c2cc1OC`, in series [1], the concentration for half-maximal inhibition (IC50) was above 10 µM.
Turning to `COc1cc2ncnc(Nc3ccc(Br)cc3F)c2cc1OC`, the IC50 in series [1] was above 10 µM; in [2], 0.549 µM.
On to `Cc1ccc(S(=O)(=O)n2c(N)nc3ccccc32)cc1`, for which the IC50 in series [1] is above 10 µM; in series [12] it was above 1 µM. For the same molecule, in the series with HEK-Blue hNOD1, the outcome was inactive.
With `COc1cc2ncnc(Nc3n[nH]c(C)c3C)c2cc1OC`, the IC50 in series [1] and in series [2] was above 10 µM in each case.
Take `COc1cc2ncnc(Nc3ccc(F)c(Cl)c3)c2cc1OCCCN1CCOCC1` [GEFITINIB]: the IC50 was 1.08 µM in series [1] and 0.605 µM in [2]. The Activity entry (in series [3]; in series [5]; in the series on Huh-7) was “Non-toxic” each time.
On to `COc1cc2ncnc(Nc3ccc(F)c(Cl)c3)c2cc1OC`, for which the IC50 in series [1] was above 10 µM; in series [2] it was 1.34 µM.
`COc1cc2ncnc(Nc3ccc(Br)c(O)c3)c2cc1OC`: the IC50 in series [1] was above 10 µM.
Take `COc1cc2ncnc(Nc3ccc(Cl)cc3)c2cc1OC`: the IC50 in [1] is above 10 µM; in series [2] it was 0.283 µM.
As for `COc1cc2ncnc(Nc3ccccc3Cl)c2cc1OC`, the IC50 in series [1] was above 10 µM.
`COc1cc2ncnc(Nc3ccccc3)c2cc1OC`: the IC50 in series [1] and in [2] was above 10 µM in each case.
As for `COc1cc(Nc2ncnc3cc(OC)c(OC)cc23)c(F)cc1Br`, the IC50 in series [1] was above 10 µM.
`CCN(CC)CCOc1cc2c(Nc3cc(OC)c(Cl)cc3Cl)ncnc2cc1OC`: the IC50 in series [1] is above 10 µM.
Same read-out and setting: with `COc1cc2ncnc(Nc3ccncc3)c2cc1OC` the figure was above 10 µM; with `COc1cc2ncnc(Nc3n[nH]c4ccc(F)cc34)c2cc1OC`, above 10 µM.
